Experimental data as given in US11254686B1 (Corvus Pharmaceuticals, Inc., priority 2017, dated 2022).
Values joined by “and” are separate entries in the source; they are usually repeats but may differ in a detail not shown here. Identical values can stand only once.

How the values were obtained:
Assay type in all cases: biochemical
adenosine A1 receptor = adenosine A1 receptor (Homo sapiens (Human), UniProt P30542); assay: Adenosine receptor activity assay (Table 1), A1 cAMP
adenosine A2A receptor = adenosine A2A receptor (Homo sapiens (Human), UniProt P29274); assay: Adenosine receptor activity assay (Table 1), A2A activity; conditions: cAMP; read-out: Ave A2A cAMP IC50
adenosine A2B receptor = adenosine A2B receptor (Homo sapiens (Human), UniProt P29275); assay: Adenosine receptor activity assay (Table 1), A2B activity; conditions: for Ratio: A2A activity to the A2B activity, A2A/A2B; for IC50: cAMP, read-out: Ave A2B cAMP IC50
adenosine A3 receptor = adenosine A3 receptor (Homo sapiens (Human), UniProt P0DMS8); assay: Adenosine receptor activity assay (Table 1), A3 cAMP
Chain of adenosine A3 receptor (P0DMS8 whole entry): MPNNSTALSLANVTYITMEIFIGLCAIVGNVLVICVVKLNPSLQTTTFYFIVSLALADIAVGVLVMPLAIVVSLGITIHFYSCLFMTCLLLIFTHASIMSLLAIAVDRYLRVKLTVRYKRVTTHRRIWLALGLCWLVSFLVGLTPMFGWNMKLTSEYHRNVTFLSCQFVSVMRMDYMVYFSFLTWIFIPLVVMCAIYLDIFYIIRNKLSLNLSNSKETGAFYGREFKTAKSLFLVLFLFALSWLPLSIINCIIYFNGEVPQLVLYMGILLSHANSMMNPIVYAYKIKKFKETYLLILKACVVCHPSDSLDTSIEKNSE

Chain of adenosine A2A receptor (P29274 whole entry): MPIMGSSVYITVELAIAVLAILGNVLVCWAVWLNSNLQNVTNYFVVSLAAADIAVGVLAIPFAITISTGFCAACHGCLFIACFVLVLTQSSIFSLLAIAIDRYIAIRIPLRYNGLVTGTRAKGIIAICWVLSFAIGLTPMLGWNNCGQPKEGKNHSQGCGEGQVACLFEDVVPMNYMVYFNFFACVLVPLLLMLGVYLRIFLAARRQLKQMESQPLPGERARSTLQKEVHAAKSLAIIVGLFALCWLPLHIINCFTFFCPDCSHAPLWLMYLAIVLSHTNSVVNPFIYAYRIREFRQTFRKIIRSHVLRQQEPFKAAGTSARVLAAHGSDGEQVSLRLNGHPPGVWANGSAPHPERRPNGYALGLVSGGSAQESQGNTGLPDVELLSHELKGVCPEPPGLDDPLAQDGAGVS
Chain of adenosine A1 receptor (P30542 whole entry): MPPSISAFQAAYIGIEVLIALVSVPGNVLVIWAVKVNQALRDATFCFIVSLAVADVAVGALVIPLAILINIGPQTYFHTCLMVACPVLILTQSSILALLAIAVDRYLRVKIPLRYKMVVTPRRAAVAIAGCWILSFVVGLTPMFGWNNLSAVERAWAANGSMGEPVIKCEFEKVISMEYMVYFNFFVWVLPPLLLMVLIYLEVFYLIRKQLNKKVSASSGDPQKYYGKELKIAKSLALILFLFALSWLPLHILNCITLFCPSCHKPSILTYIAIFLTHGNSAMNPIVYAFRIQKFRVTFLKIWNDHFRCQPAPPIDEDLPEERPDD
Chain of adenosine A2B receptor (P29275 whole entry): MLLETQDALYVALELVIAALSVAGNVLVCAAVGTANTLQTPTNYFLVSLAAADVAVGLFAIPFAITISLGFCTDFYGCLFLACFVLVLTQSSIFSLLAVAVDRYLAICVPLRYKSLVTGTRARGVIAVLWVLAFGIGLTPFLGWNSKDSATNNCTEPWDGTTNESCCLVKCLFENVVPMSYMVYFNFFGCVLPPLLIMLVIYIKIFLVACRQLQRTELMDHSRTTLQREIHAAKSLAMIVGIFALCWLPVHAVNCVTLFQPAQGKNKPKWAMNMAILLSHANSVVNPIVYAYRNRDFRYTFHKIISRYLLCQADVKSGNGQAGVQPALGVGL

Cc1cccc(C(=O)NC2CN(C(=O)c3nc(N[C@@H](C)c4cncc(F)c4)nc4ccsc34)C2)c1 [Example Z626, (S)—N-(1-(2-((1-(5-Fluoropyridin-3-yl)ethyl)amino)thieno[3,2-d]pyrimidine-4-carbonyl)azetidin-3-yl)-3-methylbenzamide]
IC50 (adenosine A1 receptor): > 0.5 µM | IC50 (adenosine A2A receptor): < 0.01 µM | Ratio (adenosine A2B receptor): 0.85 | IC50 (adenosine A2B receptor): 0.01 to 0.05 µM | IC50 (adenosine A3 receptor): 0.1 to 0.5 µM

C[C@H](Nc1nc(C(=O)N2CC(NC(=O)C3(C)CCC3)C2)c2sccc2n1)c1cncc(F)c1 [Example Z627, (S)—N-(1-(2-((1-(5-Fluoropyridin-3-yl)ethyl)amino)thieno[3,2-d]pyrimidine-4-carbonyl)azetidin-3-yl)-1-methylcyclobutane-1-carboxamide]
IC50 (adenosine A1 receptor): > 0.5 µM | IC50 (adenosine A2A receptor): < 0.01 µM | Ratio (adenosine A2B receptor): 0.15 and 0.25 | IC50 (adenosine A2B receptor): 0.01 to 0.05 µM | IC50 (adenosine A3 receptor): 0.1 to 0.5 µM

C[C@H](Nc1nc(C(=O)N2CC[C@@H](C(=O)NOC3CCCC3)C2)c2sccc2n1)c1cncc(F)c1 [Example Z628, (R)—N-(Cyclopentyloxy)-1-(2-(((S)-1-(5-fluoropyridin-3-yl)ethyl)amino)thieno[3,2-d]pyrimidine-4-carbonyl)pyrrolidine-3-carboxamide]
IC50 (adenosine A1 receptor): > 0.5 µM | IC50 (adenosine A2A receptor): < 0.01 µM | Ratio (adenosine A2B receptor): 1.25 | IC50 (adenosine A2B receptor): < 0.01 µM | IC50 (adenosine A3 receptor): 0.1 to 0.5 µM

C[C@H](Nc1nc(C(=O)N2CC(NC(=O)c3ccc(C(F)(F)F)o3)C2)c2sccc2n1)c1cncc(F)c1 [Example Z629, (S)—N-(1-(2-((1-(5-Fluoropyridin-3-yl)ethyl)amino)thieno[3,2-d]pyrimidine-4-carbonyl)azetidin-3-yl)-5-(trifluoromethyl)furan-2-carboxamide]
IC50 (adenosine A1 receptor): > 0.5 µM | IC50 (adenosine A2A receptor): 0.01 to 0.05 µM | Ratio (adenosine A2B receptor): 2.40 | IC50 (adenosine A2B receptor): 0.01 to 0.05 µM | IC50 (adenosine A3 receptor): > 0.5 µM

CCC(CC)NC(=O)NC1CN(C(=O)c2nc(N[C@@H](C)c3cncc(F)c3)nc3ccsc23)C1 [Example Z630, (S)-1-(1-(2-((1-(5-Fluoropyridin-3-yl)ethyl)amino)thieno[3,2-d]pyrimidine-4-carbonyl)azetidin-3-yl)-3-(pentan-3-yl)urea]
IC50 (adenosine A1 receptor): > 0.5 µM | IC50 (adenosine A2A receptor): < 0.01 µM | Ratio (adenosine A2B receptor): 0.33 | IC50 (adenosine A2B receptor): 0.01 to 0.05 µM | IC50 (adenosine A3 receptor): 0.01 to 0.05 µM

C[C@H](Nc1nc(C(=O)N2CC(NC(=O)C34CC5CC(CC(C5)C3)C4)C2)c2sccc2n1)c1cncc(F)c1 [Example Z631, (3S,5S,7S)—N-(1-(2-(((S)-1-(5-Fluoropyridin-3-yl)ethyl)amino)thieno[3,2-d]pyrimidine-4-carbonyl)azetidin-3-yl)adamantane-1-carboxamide]
IC50 (adenosine A1 receptor): > 0.5 µM | IC50 (adenosine A2A receptor): < 0.01 µM | Ratio (adenosine A2B receptor): 0.09 | IC50 (adenosine A2B receptor): 0.01 to 0.05 µM | IC50 (adenosine A3 receptor): 0.01 to 0.05 µM

Cc1cc2nc(N[C@@H](C)c3cncc(F)c3)nc(C(=O)N3CC(NC(=O)c4ccc(C(F)(F)F)o4)C3)c2s1 [Example Z632, (S)—N-(1-(2-((1-(5-Fluoropyridin-3-yl)ethyl)amino)-6-methylthieno[3,2-d]pyrimidine-4-carbonyl)azetidin-3-yl)-5-(trifluoromethyl)furan-2-carboxamide]
IC50 (adenosine A1 receptor): > 0.5 µM | IC50 (adenosine A2A receptor): < 0.01 µM | Ratio (adenosine A2B receptor): 1.12 | IC50 (adenosine A2B receptor): < 0.01 µM | IC50 (adenosine A3 receptor): 0.1 to 0.5 µM

C[C@H](Nc1nc(C(=O)N2CC(NC(=O)c3cccc(C(F)(F)F)c3)C2)c2sccc2n1)c1cncc(F)c1 [Example Z633, (S)—N-(1-(2-((1-(5-Fluoropyridin-3-yl)ethyl)amino)thieno[3,2-d]pyrimidine-4-carbonyl)azetidin-3-yl)-3-(trifluoromethyl)benzamide]
IC50 (adenosine A1 receptor): > 0.5 µM | IC50 (adenosine A2A receptor): 0.01 to 0.05 µM | Ratio (adenosine A2B receptor): 1.62 | IC50 (adenosine A2B receptor): < 0.01 µM | IC50 (adenosine A3 receptor): 0.1 to 0.5 µM

C[C@H](Nc1nc(C(=O)N2CC(NC(=O)Nc3ccccc3)C2)c2sccc2n1)c1cncc(F)c1 [Example Z634, (S)-1-(1-(2-((1-(5-Fluoropyridin-3-yl)ethyl)amino)thieno[3,2-d]pyrimidine-4-carbonyl)azetidin-3-yl)-3-phenylurea]
IC50 (adenosine A1 receptor): > 0.5 µM | IC50 (adenosine A2A receptor): 0.01 to 0.05 µM | Ratio (adenosine A2B receptor): 2.22 | IC50 (adenosine A2B receptor): < 0.01 µM | IC50 (adenosine A3 receptor): 0.1 to 0.5 µM

COc1cccc(C(=O)NC2CN(C(=O)c3nc(N[C@@H](C)c4cncc(F)c4)nc4ccsc34)C2)c1 [Example Z635, (S)—N-(1-(2-((1-(5-Fluoropyridin-3-yl)ethyl)amino)thieno[3,2-d]pyrimidine-4-carbonyl)azetidin-3-yl)-3-methoxybenzamide]
IC50 (adenosine A1 receptor): > 0.5 µM | IC50 (adenosine A2A receptor): 0.01 to 0.05 µM | Ratio (adenosine A2B receptor): 2.06 | IC50 (adenosine A2B receptor): 0.01 to 0.05 µM | IC50 (adenosine A3 receptor): 0.1 to 0.5 µM

C[C@H](Nc1nc(C(=O)N2CC(NC(=O)C3(C#N)CC3)C2)c2sccc2n1)c1cncc(F)c1 [Example Z636, (S)-1-Cyano-N-(1-(2-((1-(5-fluoropyridin-3-yl)ethyl)amino)thieno[3,2-d]pyrimidine-4-carbonyl)azetidin-3-yl)cyclopropane-1-carboxamide]
IC50 (adenosine A1 receptor): > 0.5 µM | IC50 (adenosine A2A receptor): 0.05 to 0.1 µM | Ratio (adenosine A2B receptor): 3.72 | IC50 (adenosine A2B receptor): 0.01 to 0.05 µM | IC50 (adenosine A3 receptor): > 0.5 µM

C[C@H](Nc1nc(C(=O)N2CC(NC(=O)C34CCC(CC3)CC4)C2)c2sccc2n1)c1cncc(F)c1 [Example Z637, (S)—N-(1-(2-((1-(5-Fluoropyridin-3-yl)ethyl)amino)thieno[3,2-d]pyrimidine-4-carbonyl)azetidin-3-yl)bicyclo[2.2.2]octane-1-carboxamide]
IC50 (adenosine A1 receptor): > 0.5 µM | IC50 (adenosine A2A receptor): < 0.01 µM | Ratio (adenosine A2B receptor): 0.13 | IC50 (adenosine A2B receptor): 0.01 to 0.05 µM | IC50 (adenosine A3 receptor): 0.01 to 0.05 µM

C[C@H](Nc1nc(C(=O)N2CC(NC(=O)C3CC(C)(C)C3)C2)c2sccc2n1)c1cncc(F)c1 [Example Z638, (S)—N-(1-(2-((1-(5-Fluoropyridin-3-yl)ethyl)amino)thieno[3,2-d]pyrimidine-4-carbonyl)azetidin-3-yl)-3,3-dimethylcyclobutane-1-carboxamide]
IC50 (adenosine A1 receptor): > 0.5 µM | IC50 (adenosine A2A receptor): < 0.01 µM | Ratio (adenosine A2B receptor): 0.52 | IC50 (adenosine A2B receptor): 0.01 to 0.05 µM | IC50 (adenosine A3 receptor): 0.05 to 0.1 µM

C[C@H](Nc1nc(C(=O)N2CC(NC(=O)[C@H]3CC[C@H](C)CC3)C2)c2sccc2n1)c1cncc(F)c1 [Example Z639, Trans-N-(1-(2-(((S)-1-(5-fluoropyridin-3-yl)ethyl)amino)thieno[3,2-d]pyrimidine-4-carbonyl)azetidin-3-yl)-4-methylcyclohexane-1-carboxamide]
IC50 (adenosine A1 receptor): > 0.5 µM | IC50 (adenosine A2A receptor): 0.01 to 0.05 µM | Ratio (adenosine A2B receptor): 0.98 | IC50 (adenosine A2B receptor): 0.01 to 0.05 µM | IC50 (adenosine A3 receptor): 0.1 to 0.5 µM

C[C@H](Nc1nc(C(=O)N2CC(NC(=O)C3CCC(F)(F)CC3)C2)c2sccc2n1)c1cncc(F)c1 [Example Z640, (S)-4,4-Difluoro-N-(1-(2-((1-(5-fluoropyridin-3-yl)ethyl)amino)thieno[3,2-d]pyrimidine-4-carbonyl)azetidin-3-yl)cyclohexane-1-carboxamide]
IC50 (adenosine A1 receptor): > 0.5 µM | IC50 (adenosine A2A receptor): 0.01 to 0.05 µM | Ratio (adenosine A2B receptor): 1.24 | IC50 (adenosine A2B receptor): 0.01 to 0.05 µM | IC50 (adenosine A3 receptor): 0.1 to 0.5 µM

C[C@H](Nc1nc(C(=O)N2CC(NC(=O)C3(C)CC3)C2)c2sccc2n1)c1cncc(Cl)c1 [Example Z641, (S)—N-(1-(2-((1-(5-Chloropyridin-3-yl)ethyl)amino)thieno[3,2-d]pyrimidine-4-carbonyl)azetidin-3-yl)-1-methylcyclopropane-1-carboxamide]
IC50 (adenosine A1 receptor): > 0.5 µM | IC50 (adenosine A2A receptor): 0.01 to 0.05 µM | Ratio (adenosine A2B receptor): 1.81 | IC50 (adenosine A2B receptor): < 0.01 µM | IC50 (adenosine A3 receptor): 0.1 to 0.5 µM
